Laboratory results taken from patent US20130040331A1, “LABEL-FREE METHODS RELATED TO hERG POTASSIUM ION [sequence]” (CORNING INCORPORATED, priority 2009, published 2013).

Legend:
hERG channel [1] = target: T1, hERG channel (Homo sapiens, UniProt Q12809); settings: oocytes, cited from earlier work
hERG channel [2] = target: T1, hERG channel; assay: Automated patch clamp recording of hERG current using IonWorks, CHO-hERG cells; settings: for effect on hERG tail current: 50 μM, tail current at return to −35 mV; for effect on hERG current: final compound concentration 50 μM
Protocol: CHO—K1 cells stably expressing hERG channel (CHO-hERG) were cultured in T175 flask till about 70% confluent. Cells were washed twice with PBS, then 2.5 ml 0.25% Trypsin/EDTA was mixed with 2.5 ml PBS and added to the T175 flask. Cells were incubated about 2 minutes with the diluted Trypsin/EDTA solution at 37° C., then were continuously incubated about 3 minutes at room temperature. 20 ml fresh medium were added to suspend the cells and transfer to a 50 ml tube. Cells were centrifuged down at 750 rpm for 5 minutes. The extra medium was removed and cells were resuspended in 6 ml External Buffer (137 mM NaCl, 4 mM KCl, 1.8 mM CaCl2, 1 mM MgCl2, 10 mM HEPES, 10 mM glucose, pH 7.4). Then cells were centrifuged again at 450 rpm for another 5 minutes. Finally cells were resuspended in 4 ml the External Buffer, cell number was counted using a hemacytometer. Cell suspension was diluted to 2.5×10^6 cells/ml with the External Buffer. 4 ml of the resuspended cells were added to the cell reservoir in IonWorks. The Internal solution used contains: 40 mM KCl, 100 mM K-Gluconate, 3.2 mM MgCl2, 2 mM CaCl2, 5 mM HEPES, pH 7.25 (adjusted with KOH). 5 mg Amphotericin B from 200 ul DMSO stock was added to 65 ml the Internal solution and mixed well to achieve electrical access to the interior of cells on the patch plate.
Compounds were prepared from 10 mM DMSO stock and diluted in the External Buffer to make 3× compound solution. […] of the 3× compound solution was transferred to a 384 well plate in Row A, B, C and D. PD11857 (Sigma-Aldrich), a reported hERG channel activator was used as activator positive control (final concentration 30 and 50 μM). hERG blocker dofetilide was used as blocker positive control (final concentration 100 nM). The final DMSO concentration in the IonWorks Quattro PatchPlate PPC plate (Cat#9000-0902, Molecular Devices) was 0.5%. Final compound concentration was 50 μM. Each compound was added to four wells of one PPC plate.
hERG currents were recorded on IonWorks Quattro (Molecular Devices). To record hERG current, the cells were clamped at −80 mV initially, then followed by a 5-s depolarization at +40 mV to activate the channels. Tail currents were measured during an ensuing return to −35 mV. Data analysis were done using IonWorks Quttro® System Software version 2.0.4.4. Data from wells with seal resistance less than 50 MΩ or hERG tail currents less than 0.1 nA were filtered out. […] Inhibitor hits were selected if hERG tail currents ratio (post/pre-compound) is less than mean-2SD of the average DMSO control.
To record hERG current, the cells were clamped at −80 mV initially, then followed by a 5-s depolarization at +40 mV to activate the channels (phase a in FIG. 10A). Tail currents were measured during an ensuing return to −35 mV for 2 seconds (phase b in FIG. 10A). Final holding potential at −70 mV (phase c in FIG. 10B).

hERG channel [3] = target: T1, hERG channel; settings: 10 micromolar; cited from earlier work
HEK-hERG cells = type: cell-based, human; settings: microscopic imaging, data not shown
Protocol: To confirm these findings, several follow-up studies were carried out.

HEK293 cells = assay: Label-free RWG biosensor (Epic) DMR assay, agonism mode, native HEK293 cells without hERG; type: cell-based, human; settings: compound at 16 micromolar
Protocol: Epic® wavelength interrogation system (Corning Inc., Corning, N.Y.) was used for whole cell sensing. This system consists of a temperature-control unit, an optical detection unit, and an on-board liquid handling unit with robotics. The detection unit is centered on integrated fiber optics, and enables kinetic measures of cellular responses with a time interval of ˜15 sec.
Cells were plated in 384-well Epic® cell culture treated plate (Corning Cat#5040) 16-20 hours before assay (15000 cells/well for HEK293 and HEK-hERG cells, 30000 cells/well for HT29 cells). For both HEK-hERG and its parental HEK293 cells, each well was coated with 10 μl 5 μg/ml fibronectin. One hour before assay, cells were washed twice on a BioTek ELx405 Select washer with Hank's Balanced Salt Solution (HBSS) containing 20 mM Hepes. Cells were incubated in 40 μl/well HBSS at 28° C. inside the Epic system for one hour. For each assay, a 2-min baseline was initiated, followed by addition of 10 μl compound solutions (5×) and the cell responses were recorded continuously for one hour.
All studies were carried out at a controlled temperature (28° C.). At least two independent sets of experiments, each with at least three replicates, were performed. […] All dose-dependent responses were analyzed using non-linear regression method with the GraphPad Prism 5. […]

T1 sequence (Q12809 whole entry): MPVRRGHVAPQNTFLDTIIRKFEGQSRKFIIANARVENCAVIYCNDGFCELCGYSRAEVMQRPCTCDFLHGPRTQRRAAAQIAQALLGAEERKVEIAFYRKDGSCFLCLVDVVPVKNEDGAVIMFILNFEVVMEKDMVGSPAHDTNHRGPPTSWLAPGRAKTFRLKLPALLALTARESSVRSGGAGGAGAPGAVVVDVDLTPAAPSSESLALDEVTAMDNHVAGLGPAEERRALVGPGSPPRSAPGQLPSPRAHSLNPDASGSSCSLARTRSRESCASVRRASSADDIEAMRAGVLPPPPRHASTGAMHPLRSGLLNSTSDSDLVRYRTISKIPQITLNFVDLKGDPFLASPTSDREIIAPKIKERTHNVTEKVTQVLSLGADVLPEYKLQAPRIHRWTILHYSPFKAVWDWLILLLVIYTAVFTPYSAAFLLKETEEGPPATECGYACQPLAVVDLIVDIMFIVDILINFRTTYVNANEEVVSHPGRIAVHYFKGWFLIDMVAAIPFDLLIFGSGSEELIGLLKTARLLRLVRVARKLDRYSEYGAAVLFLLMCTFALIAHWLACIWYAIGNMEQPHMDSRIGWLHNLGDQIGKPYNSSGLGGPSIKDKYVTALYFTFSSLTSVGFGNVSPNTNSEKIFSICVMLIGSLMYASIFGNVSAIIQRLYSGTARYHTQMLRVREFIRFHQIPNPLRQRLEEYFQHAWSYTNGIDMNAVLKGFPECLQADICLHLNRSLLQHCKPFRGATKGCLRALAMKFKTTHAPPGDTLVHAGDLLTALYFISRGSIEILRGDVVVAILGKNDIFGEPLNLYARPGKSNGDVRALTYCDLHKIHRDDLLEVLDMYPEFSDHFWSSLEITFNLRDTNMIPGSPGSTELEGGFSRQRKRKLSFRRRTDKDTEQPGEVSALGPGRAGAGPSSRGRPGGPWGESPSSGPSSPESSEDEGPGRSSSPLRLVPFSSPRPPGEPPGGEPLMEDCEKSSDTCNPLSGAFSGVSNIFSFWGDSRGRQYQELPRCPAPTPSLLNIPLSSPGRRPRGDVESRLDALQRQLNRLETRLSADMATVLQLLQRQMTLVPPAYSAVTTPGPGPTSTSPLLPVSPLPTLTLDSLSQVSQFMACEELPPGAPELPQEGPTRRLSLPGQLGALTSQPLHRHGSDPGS

Compound: O=C(O)c1ccccc1Nc1cccc(C(F)(F)F)c1 [flufenamic acid]
- amplitude of outward currents evoked by depolarizing pulses (hERG channel [1]; 100 to 500 μM): enhanced the amplitude of outward currents
- activation and deactivation rate of hERG channels (hERG channel [1]): accelerated the activation rate of hERG channels and decelerated their deactivation
- effect on hERG tail current (hERG channel [2]): significantly increased
- effect on hERG current (hERG channel [2]): weak hERG current activator

Compound: CC(=O)c1c(O)c(C)c(O)c(Cc2c(O)c3c(c(C(=O)/C=C/c4ccccc4)c2O)OC(C)(C)C=C3)c1O [mallotoxin]
- shift of half maximal activation voltage (V1/2) to the hyperpolarizing direction (hERG channel [3]): more than 25 mV
- effect on hERG tail current (hERG channel [2]): significantly increases
- effect on hERG current (hERG channel [2]): significantly increases
- effect on hERG current (hERG channel [2]; listed as Mallotoxin): strong hERG current activator
- cell toxicity at high doses (HEK-hERG cells): caused cell apoptosis
- DMR signal in HEK293 cells (HEK293 cells): net-zero DMR signal
